These results are taken from US11168073B2, “3,3-difluoroallylamines or salts thereof and pharmaceutical compositions comprising the same” (YUHAN CORPORATION, priority 2018, dated 2021).

Each structure is given as a SMILES string. Where a name gives a salt, the structure may show the parent alone. Read-outs that look alike come from different tables or passages of the source.

Holding throughout (format): biochemical
For test [1], the target named is T1, recombinant human MAO-A (monoamine oxidase-A) (Homo sapiens, UniProt P21397).
T1 construct: purchased Sigma-Aldrich
T1 sequence (P21397 1-527): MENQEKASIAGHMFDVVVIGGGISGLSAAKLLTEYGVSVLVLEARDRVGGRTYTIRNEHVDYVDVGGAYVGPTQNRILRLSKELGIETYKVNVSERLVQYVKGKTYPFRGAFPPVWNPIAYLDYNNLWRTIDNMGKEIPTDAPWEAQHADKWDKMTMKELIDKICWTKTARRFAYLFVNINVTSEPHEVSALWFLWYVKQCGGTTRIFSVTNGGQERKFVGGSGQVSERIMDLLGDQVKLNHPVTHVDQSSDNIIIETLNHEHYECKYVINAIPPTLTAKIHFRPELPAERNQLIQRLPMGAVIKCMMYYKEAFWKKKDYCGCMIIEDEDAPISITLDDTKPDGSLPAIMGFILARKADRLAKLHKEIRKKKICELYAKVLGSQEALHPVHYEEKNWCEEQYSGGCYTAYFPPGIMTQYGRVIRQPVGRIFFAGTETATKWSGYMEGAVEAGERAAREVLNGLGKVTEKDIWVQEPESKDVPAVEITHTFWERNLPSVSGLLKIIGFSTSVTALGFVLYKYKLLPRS
As to the kind of experiment: Activity evaluation on recombinant human MAO-A (Amplex Red/HRP-coupled assay, 0.5 mM tyramine substrate). Particulars: read-out: Inhibitory Activity (IC50, nM) MAO-A. The method in brief: (§1)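 Enzyme activity was measured as fluorescence rate (ex 544, em 590 nm) from resorufin formed by HRP-coupled H2O2 oxidation of 200 uM Amplex Red. Compounds were first incubated 30 min at 37 °C with enzyme at pH 7.4; substrates were 0.5 mM tyramine (MAO-A), 1 mM benzylamine (MAO-B) and 1 mM putrescine (DAO).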

The target of a further test is T2, recombinant human VAP-1 (Homo sapiens, UniProt Q16853).
T2 construct: purchased R&D systems
T2 sequence (Q16853 1-763): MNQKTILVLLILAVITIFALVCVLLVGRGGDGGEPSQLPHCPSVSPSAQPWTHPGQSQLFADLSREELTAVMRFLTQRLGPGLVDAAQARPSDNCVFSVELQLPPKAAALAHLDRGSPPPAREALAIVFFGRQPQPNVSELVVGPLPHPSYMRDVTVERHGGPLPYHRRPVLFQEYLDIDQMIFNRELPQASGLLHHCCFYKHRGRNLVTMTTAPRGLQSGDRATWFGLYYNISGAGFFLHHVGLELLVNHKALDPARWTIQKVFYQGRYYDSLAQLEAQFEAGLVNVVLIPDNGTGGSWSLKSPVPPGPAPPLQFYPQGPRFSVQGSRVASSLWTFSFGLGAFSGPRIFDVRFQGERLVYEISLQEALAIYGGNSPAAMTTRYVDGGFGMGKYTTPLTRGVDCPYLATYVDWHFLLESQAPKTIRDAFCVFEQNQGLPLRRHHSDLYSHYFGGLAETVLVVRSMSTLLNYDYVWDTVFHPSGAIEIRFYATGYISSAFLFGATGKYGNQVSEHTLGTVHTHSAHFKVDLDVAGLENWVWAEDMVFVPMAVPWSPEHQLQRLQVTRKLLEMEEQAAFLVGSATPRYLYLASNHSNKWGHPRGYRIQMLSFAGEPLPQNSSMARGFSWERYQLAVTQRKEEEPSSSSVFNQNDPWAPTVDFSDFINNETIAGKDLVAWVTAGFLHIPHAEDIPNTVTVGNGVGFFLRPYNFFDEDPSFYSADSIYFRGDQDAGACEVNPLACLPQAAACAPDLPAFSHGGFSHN
The test can be described thus: Activity evaluation on recombinant human VAP-1 (Amplex Red/HRP-coupled hydrogen peroxide assay, benzylamine substrate). Particulars: read-out: Inhibitory Activity (IC50, nM) human VAP-1. The method in brief: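 Recombinant human VAP-1 in 50 mM sodium phosphate pH 7.4 preincubated 30 min at 37 °C with compound (8-point 1:3 series, <1% DMSO), then 1 mM benzylamine, 200 uM Amplex Red, 1 U/mL HRP added. H2O2-derived resorufin fluorescence (ex 544/em 590) followed 1–2 h; IC50 from four-parameter fit of rate inhibition.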

Test [2] addresses T3, recombinant human DAO (diamine oxidase) (Homo sapiens, UniProt P19801).
T3 construct: purchased R&D systems
T3 sequence (P19801 20-751): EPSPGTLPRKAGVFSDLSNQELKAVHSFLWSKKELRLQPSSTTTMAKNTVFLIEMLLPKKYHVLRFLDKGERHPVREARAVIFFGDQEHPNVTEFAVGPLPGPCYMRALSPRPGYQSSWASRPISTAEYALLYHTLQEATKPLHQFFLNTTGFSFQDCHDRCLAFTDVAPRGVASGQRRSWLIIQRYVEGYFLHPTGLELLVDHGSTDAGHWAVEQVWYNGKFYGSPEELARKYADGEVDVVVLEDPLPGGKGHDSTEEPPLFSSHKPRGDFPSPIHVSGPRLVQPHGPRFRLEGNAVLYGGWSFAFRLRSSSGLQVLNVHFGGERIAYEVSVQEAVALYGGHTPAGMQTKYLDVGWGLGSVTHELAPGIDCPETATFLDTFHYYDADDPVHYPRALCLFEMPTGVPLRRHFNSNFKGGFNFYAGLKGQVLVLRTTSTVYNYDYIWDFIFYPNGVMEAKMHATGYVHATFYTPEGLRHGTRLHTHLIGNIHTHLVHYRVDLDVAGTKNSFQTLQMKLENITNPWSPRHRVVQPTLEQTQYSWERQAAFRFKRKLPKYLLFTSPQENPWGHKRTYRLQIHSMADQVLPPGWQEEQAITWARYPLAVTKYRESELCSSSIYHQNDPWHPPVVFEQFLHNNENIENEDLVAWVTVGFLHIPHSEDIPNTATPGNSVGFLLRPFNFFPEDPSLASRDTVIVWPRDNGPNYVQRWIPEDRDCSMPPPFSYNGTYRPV
The test can be described thus: Activity evaluation on recombinant human DAO (Amplex Red/HRP-coupled assay, 1 mM putrescine substrate). Particulars: read-out: Inhibitory Activity (IC50, nM) DAO. The method in brief: as §1

Test [3] deals with T4, recombinant human MAO-B (monoamine oxidase-B) (Homo sapiens, UniProt P27338).
T4 construct: purchased Sigma-Aldrich
T4 sequence (P27338 1-520): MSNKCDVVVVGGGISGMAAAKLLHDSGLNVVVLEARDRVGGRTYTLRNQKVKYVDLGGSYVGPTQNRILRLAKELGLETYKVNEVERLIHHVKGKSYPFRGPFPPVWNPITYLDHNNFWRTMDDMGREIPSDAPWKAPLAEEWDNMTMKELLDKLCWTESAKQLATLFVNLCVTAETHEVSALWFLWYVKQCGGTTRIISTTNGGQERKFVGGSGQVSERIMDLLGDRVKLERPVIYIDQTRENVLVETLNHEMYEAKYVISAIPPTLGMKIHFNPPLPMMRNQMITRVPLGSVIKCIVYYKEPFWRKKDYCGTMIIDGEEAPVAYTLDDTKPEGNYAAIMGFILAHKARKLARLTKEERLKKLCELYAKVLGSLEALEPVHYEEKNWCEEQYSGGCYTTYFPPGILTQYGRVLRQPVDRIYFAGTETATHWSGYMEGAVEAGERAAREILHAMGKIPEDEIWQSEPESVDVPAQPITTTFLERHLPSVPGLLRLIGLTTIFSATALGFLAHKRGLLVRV
As to the kind of experiment: Activity evaluation on recombinant human MAO-B (Amplex Red/HRP-coupled assay, 1 mM benzylamine substrate). Conditions: read-out: Inhibitory Activity (IC50, nM) MAO-B. The method in brief:
as §1

[4] abbreviates: recombinant human VAP-1, benzylamine substrate.
[5] abbreviates: recombinant human VAP-1, 30 min preincubation at 37° C., 1 mM benzylamine.

As for `Cc1cc(C#Cc2ccc3c(c2)CCC(=O)N3)cnc1-n1cnn(CC(CN)=C(F)F)c1=O` [Example 249, 6-[2-[6-[1-[2-(aminomethyl)-3,3-difluoro-allyl]-5-oxo-1,2,4-triazol-4-yl]-5-methyl-3-pyridyl]ethynyl]-3,4-dihydro-1H-quinolin-2-one Trifluoroacetate], the IC50 in test [1] (0.5 mM tyramine substrate) was more than 100000 nM; on recombinant human VAP-1 (setting [4]) it was 0.9 nM; in test [2] (1 mM putrescine substrate), 3900 nM; in test [3] (1 mM benzylamine substrate), 3100 nM.
For `NCC(Cn1ncn(-c2ccc(-c3ccc(N4CCNCC4)cc3)nc2)c1=O)=C(F)F` [Example 39, 2-[2-(aminomethyl)-3,3-difluoro-allyl]-4-[6-(4-piperazin-1-ylphenyl)-3-pyridyl]-1,2,4-triazol-3-one Ditrifluoroacetate], the IC50 was more than 100000 nM in test [1] (0.5 mM tyramine), 1.2 nM on recombinant human VAP-1 (setting [5]), 310 nM in test [2] (1 mM putrescine) and 46000 nM in test [3] (1 mM benzylamine).
The matching figures for `NCC(Cn1ncn(Cc2ccc(-c3ccc(C(F)(F)F)nc3)s2)c1=O)=C(F)F` [Example 111, 2-[2-(aminomethyl)-3,3-difluoro-allyl]-4-[[5-[6-(trifluoromethyl)-3-pyridyl]-2-thienyl]methyl]-1,2,4-triazol-3-one Trifluoroacetate]: more than 100000 nM, 0.4 nM, 7200 nM and 9400 nM.
The matching figures for `NCC(Cn1ncn(-c2ncc(Br)cc2F)c1=O)=C(F)F` [Example 14, 2-[2-(aminomethyl)-3,3-difluoro-allyl]-4-(5-bromo-3-fluoro-2-pyridyl)-1,2,4-triazol-3-one Trifluoroacetate]: more than 100000 nM, 1.4 nM, 4100 nM and 40000 nM.
For `NCC(Cn1ncn(Cc2ccc(-c3ccc(N4CCNCC4)cc3)s2)c1=O)=C(F)F` [Example 106, 2-[2-(aminomethyl)-3,3-difluoro-allyl]-4-[[5-(4-piperazin-1-ylphenyl)-2-thienyl]methyl]-1,2,4-triazol-3-one Ditrifluoroacetate] the same measures were more than 100000 nM, 4.7 nM, 860 nM and more than 100000 nM.
As for `COCCNc1ncc(-c2ccc(Cn3cnn(CC(CN)=C(F)F)c3=O)s2)cn1` [Example 118, 2-[2-(aminomethyl)-3,3-difluoro-allyl]-4-[[5-[2-(2-methoxyethylamino)pyrimidin-5-yl]-2-thienyl]methyl]-1,2,4-triazol-3-one Trifluoroacetate], the IC50 was more than 100000 nM in test [1] (0.5 mM tyramine), 3.5 nM at recombinant human VAP-1 (setting [5]), 40000 nM in test [2] (1 mM putrescine) and more than 100000 nM in test [3] (1 mM benzylamine).
For `CC(=O)N1CCN(c2ccc(-c3ccc(Cn4cnn(CC(CN)=C(F)F)c4=O)s3)cc2)CC1` [Example 108, 4-[[5-[4-(4-acetylpiperazin-1-yl)phenyl]-2-thienyl]methyl]-2-[2-(aminomethyl)-3,3-difluoro-allyl]-1,2,4-triazol-3-one Trifluoroacetate], the 50% inhibitory concentration (IC50) in test [1] (0.5 mM tyramine) was more than 10000 nM; at recombinant human VAP-1 (setting [5]), 2 nM; in test [2] (1 mM putrescine) it was 42000 nM; in test [3] (1 mM benzylamine), more than 10000 nM.
For `Cc1cc(C#Cc2cnc3c(c2)OCC(=O)N3)cnc1-n1cnn(CC(CN)=C(F)F)c1=O` [Example 248, 7-[2-[6-[1-[2-(aminomethyl)-3,3-difluoro-allyl]-5-oxo-1,2,4-triazol-4-yl]-5-methyl-3-pyridyl]ethynyl]-4H-pyrido[3,2-b][1,4]oxazin-3-one trifluoroacetate], the IC50 in test [1] (0.5 mM tyramine substrate) was more than 100000 nM; on recombinant human VAP-1 (setting [4]), 2.7 nM; in test [2] (1 mM putrescine substrate), more than 100000 nM; in test [3] (1 mM benzylamine substrate) it was 14000 nM.
Turning to `NCC(Cn1ncn(-c2ncc(-c3ccc(N4CCNCC4)cc3)cc2F)c1=O)=C(F)F` [Example 83, 2-[2-(aminomethyl)-3,3-difluoro-allyl]-4-[3-fluoro-5-(4-piperazin-1-ylphenyl)-2-pyridyl]-1,2,4-triazol-3-one Ditrifluoroacetate], the IC50 in test [1] (0.5 mM tyramine) was more than 100000 nM; on recombinant human VAP-1 (setting [5]), 0.4 nM; in test [2] (1 mM putrescine) it was 250 nM; in test [3] (1 mM benzylamine) it was more than 10000 nM.
In the case of `Cc1cc(-c2ccc(N3CCOCC3)cc2)cnc1-n1cnn(CC(CN)=C(F)F)c1=O` [Example 237, 2-[2-(aminomethyl)-3,3-difluoro-allyl]-4-[3-methyl-5-(4-morpholinophenyl)-2-pyridyl]-1,2,4-triazol-3-one Trifluoroacetate], the IC50 in test [1] (0.5 mM tyramine substrate) is more than 100000 nM; at recombinant human VAP-1 (setting [4]), 0.42 nM; in test [2] (1 mM putrescine substrate), 6100 nM; in test [3] (1 mM benzylamine substrate), 84000 nM.
Regarding `CN1Cc2cc(-c3ccc(Cn4cnn(CC(CN)=C(F)F)c4=O)s3)ccc2NC1=O` [Example 182, 6-[5-[[1-[2-(aminomethyl)-3,3-difluoro-allyl]-5-oxo-1,2,4-triazol-4-yl]methyl]-2-thienyl]-3-methyl-1,4-dihydroquinazolin-2-one Trifluoroacetate], the half-maximal inhibitory concentration (IC50) in test [1] (0.5 mM tyramine substrate) was more than 100000 nM; at recombinant human VAP-1 (setting [4]) it was 0.2 nM; in test [2] (1 mM putrescine substrate), more than 100000 nM; in test [3] (1 mM benzylamine substrate) it was more than 100000 nM.
